# Measured values published in US20240279611A1, “EXOSOME PRODUCTION PROMOTING AGENT AND EXOSOME PRODUCTION PROMOTING METHOD” (FULLSTEM CO., LTD., priority 2021, published 2024).
# Tested on: adipose-derived mesenchymal stem cells (ADSC)
# Test: Amount of exosomes produced from ADSC, measured with Exo Counter (CD81 sandwich immunoassay) after excluding single factors
# Assay type: cell-based
# Conditions: 48-hour culture in DMEM F12 on nonwoven fabric; one factor excluded from the eight factors of Table 1, compared with all eight added; CD81 on exosome surface detected in culture supernatant; FIG. 1
# Experimental: 4×10^4 adipose-derived mesenchymal stem cells (ADSC) were seeded in each well. A nonwoven fabric (3D, BioNOCII, CESCO BIOENGINEERING CO., LTD. in non-adhesive 24 well plate (PrimeSurface (registered trademark) Sumitomo Bakelite Co., Ltd.) was used for cell culture. A basal medium was 1.5 ml of 10% FBS/DMEM F12 (Sigma-Aldrich). The number of days of culture was 6. Starting from Day 2, 1.5 ml of medium was exchanged daily, and the amount of sugar consumed in the used culture medium was measured.
# Next, in the cell culture for 48 hours on Day 7 and Day 8, DMEM F12 was used as a medium so as to collect exosomes. In this 48-hour culture, 10% ExoFBS (Funakoshi Co., Ltd.) was added in Test #1. ExoFBS is a product from which bovine-derived exosomes are removed; therefore, influence on an exosome research is reduced.
# In Test #3 of the 48-hour culture, only factor A was excluded from the eight factors shown in Table 1, and the other factors were added. In Test #4 of the 48-hour culture, only factor B was excluded from the eight factors shown in Table 1, and the other factors were added. In Test #5 of the 48-hour culture, only factor C was excluded from the eight factors shown in Table 1, and the other factors were added. In Test #6 of the 48-hour culture, only factor D was excluded from the eight factors shown in Table 1, and the other factors were added. In Test #7 of the 48-hour culture, only factor E was excluded from the eight factors shown in Table 1, and the other factors were added. In Test #8 of the 48-hour culture, only factor F was excluded from the eight factors shown in Table 1, and the other factors were added. In Test #9 of the 48-hour culture, only factor G was excluded from the eight factors shown in Table 1, and the other factors were added. In Test #10 of the 48-hour culture, only factor H was excluded from the eight factors shown in Table 1, and the other factors were added.
# The amount of exosomes produced from ADSC was measured with Exo Counter (Kenwood), using 50 μl each from 1.5 ml of the collected culture supernatant. Exo Counter detects exosomes by sandwich immunoassay using disc and nanobeads antibodies in a surface antigen-specific manner. CD81 on the exosome surface was detected to quantify the exosome amount.
row,Compound,effect of the factor on the amount of exosomes produced
1,TNFα,inhibited the production of exosomes
2,EGF [6045 Da protein consisting of 53 amino acid residues and three intramolecular disulfide bonds; ligand of epidermal growth factor receptor],promotes the production of exosomes
3,IL-1β,promoted the production of exosomes
4,"OC[C@H]1O[C@H](O[C@H]2O[C@H](CO)[C@@H](O)[C@H](O)[C@H]2O)[C@H](O)[C@@H](O)[C@@H]1O [trehalose, Trehalose]",promoted the production of exosomes
